Results on one substance are retold here after patent US20260232740A1, “COMBINATIONS COMPRISING VITAMIN B2 AND LACTOBACILLUS RHAMNOSUS” (DSM IP Assets B.V., priority 2022, published 2026).

For one assay, the system named is Bifidobacteriaceae. Kind of assay: Long-term SHIME fermentation (colon model), 16S rRNA gene sequencing: relative abundance of Bifidobacteriaceae in mucus of transverse colon. The arrangement: species or system human. Conditions: relative abundance (%), end of three-week treatment vs end of control period (n=3), probiotic 1*1010 CFU/reactor, vitamin B2 10 mg/day, p<0.05. An excerpt: (§1) The typical reactor setup of the SHIMER, representing the gastrointestinal tract of the adult human, was described by Molly et al. (1993) Applied Microbiology and Biotechnology 39 (2): 254-258. Inoculum preparation, retention time, pH, temperature settings and reactor feed composition were previously described by Possemiers et al. (2004) FEMS Microbiol Ecol. 49 (3): 495-507. Compared to the typical setup of the SHIME, the long-term SHIME experiment used for this example included some adaptations. In one reactor, at first, the conditions of the stomach were simulated, before being changed by the computer to conditions simulating the small intestine. […]
(§2) Samples for quantitative 16S-targeted Illumina sequencing were collected 3×/week during the last week of the control and treatment period. […] The obtained high-resolution proportional phylogenetic information (i.e., proportional abundances (%)) was combined with an accurate quantification of total bacterial cells via flow cytometry to obtain quantitative data at phylum, family, and species level. […] Samples were analyzed on a BD Facsverse (BDBiosciences, Erembodegem, Belgium) using the high-flow-rate setting and bacteria were separated from medium debris and signal noise by applying a threshold level of 200 on the SYTO channel. […]

For assay [1], the system named is Bifidobacterium adolescentis. Kind of assay: Long-term SHIME fermentation (colon model), 16S rRNA gene sequencing and flow cytometry: levels of Bifidobacterium adolescentis in lumen of transverse colon. Details: species or system human. As to conditions: average levels (log cells/mL), end of three-week treatment vs end of control period (n=3), probiotic 1*1010 CFU/reactor, vitamin B2 10 mg/day, p<0.05.
Description: as §1, §2
(In flow cytometry, cells or beads pass a laser one at a time.)

On to Lactobacillus rhamnosus GG, for which the “abundance of Bifidobacteriaceae compared to the control” value in the assay on Bifidobacteriaceae was “did not significantly change”. The “abundance of Bifidobacterium adolescentis compared to the control” value in assay [1] is given as “did not significantly change”.
